Measured values: PubChem BioAssay AID652063 (Molecular Libraries Program, Specialized Chemistry Center, …, 2013)
Activity calls are given as the source filed them. How the calls were made is not given here.

System: mouse cells, CHOP mRNA qRT-PCR
Assay: CHOP mRNA level inhibitors by qRT-PCR in mouse cells at medium throughput (AID 652063)

Compound	IC50
Cc1ccc(NC(=O)c2cc3ccccc3oc2=O)cc1S(=O)(=O)N(C)C	> 20 µM (inactive)
CCOc1ccc(-c2nc(CSCC(=O)NCc3ccco3)c(C)o2)cc1	4.37 µM (inactive)
Cc1ccc(NC(=O)O/N=C/c2c(C)nn(C(C)(C)C)c2C)cc1Cl	4.53 µM (inactive)
Cc1cc(C2=NNC(=NC3CC3)SC2)c(C)n1-c1ccccc1F	2.89 µM (inactive)
CC(C)(C)c1ccc(-c2noc(CCC(N)=O)n2)cc1	> 20 µM (inactive)
CCN=C1NN=C(c2cc(C)n(Cc3ccco3)c2C)CS1	3.73 µM (inactive)
Cc1cc(C2=NNC(=NC3CC3)SC2)c(C)n1-c1ccccc1	3.58 µM (inactive)
Cc1nn(C(C)(C)C)c(C)c1/C=N/OC(=O)Nc1ccc(Cl)cc1	18.4 µM (inactive)
CC(C)(C)c1ccc(C(=O)Nc2ccc(CC(=O)O)cc2)o1	> 20 µM (inactive)
C=CCn1c(C)cc(C2=NN=C(NCC)SC2)c1C	6.18 µM (inactive)
Cc1cc(C(=O)COC(=O)c2ccccc2O)c(C)n1Cc1cccs1	6.12 µM (inactive)
